Measurements published in US20100267561A1, “HERBICIDAL PYRIDAZINONE DERIVATIVES” (priority 2007, published 2010).
Read-outs that look alike come from different tables or passages of the source.

Columns and labels:
Type in all cases: in vivo
[1] = system: surinam grass (Brachiaria decumbens); assay: Test B pre-/postemergence plant response; conditions: Urochloa decumbens, read-out: Plant response rating, Surinam Grass; for pest or weed control at 16 g/ha: 16 g ai/ha; for pest or weed control at 31 g/ha: 31 g ai/ha, 100 complete control; for pest or weed control at 62 g/ha: 62 g ai/ha; for pest or weed control at 125 g/ha: 125 g ai/ha
From the text: (§1) Seeds of plant species selected from blackgrass (Alopecurus myosuroides), downy bromegrass (Bromus tectorum), green foxtail (Setaria viridis), Italian ryegrass (Lolium multiflorum), wheat (Triticum aestivum), wild oat (Avena fatua), catchweed bedstraw (Galium aparine), bermudagrass (Cynodon dactylon), surinam grass (Brachiaria decumbens), cocklebur (Xanthium strumarium), corn (Zea mays), large crabgrass (Digitaria sanguinalis), woolly cupgrass (Eriochloa villosa), giant foxtail (Setaria faberii), goosegrass (Eleusine indica), johnsongrass (Sorghum halepense), kochia (Kochia scoparia), lambsquarters (Chenopodium album), morningglory (Ipomoea coccinea), eastern black (E.B.) nightshade (Solanum ptycanthum), yellow nutsedge (Cyperus esculentus), pigweed (Amaranthus retroflexus), common ragweed (Ambrosia elation), Russian thistle (Salsola iberica), soybean (Glycine max), common (oilseed) sunflower (Helianthus annuus), and velvetleaf (Abutilon theophrasti) were planted and treated preemergence with test chemicals formulated in a non-phytotoxic solvent mixture which included a surfactant.
(§2) At the same time, plants selected from these crop and weed species and also winter barley (Hordeum vulgare), canarygrass (Phalaris minor), chickweed (Stellaria media) and windgrass (Apera spica-venti) were treated with postemergence applications of some of the test chemicals formulated in the same manner. Plants ranged in height from 2 to 18 cm (1- to 4-leaf stage) for postemergence treatments.
(§3) Plant species in the flooded paddy test consisted of rice (Oryza sativa), umbrella sedge (Cyperus difformis), ducksalad (Heteranthera limosa) and barnyardgrass (Echinochloa crus-galli) grown to the 2-leaf stage for testing. At time of treatment, test pots were flooded to 3 cm above the soil surface, treated by application of test compounds directly to the paddy water, and then maintained at that water depth for the duration of the test. Treated plants and controls were maintained in a greenhouse for 13 to 15 days, after which time all species were compared to controls and visually evaluated. Plant response ratings, summarized in Table B, are based on a scale of 0 to 100 where 0 is no effect and 100 is complete control. A dash (-) response means no test result.

[2] = system: downy bromegrass (Bromus tectorum); assay: Test B pre-/postemergence plant response; conditions: Bromus tectorum, read-out: Plant response rating, Bromegrass, Downy; for pest or weed control at 16 g/ha: 16 g ai/ha; for pest or weed control at 31 g/ha: 31 g ai/ha, 100 complete control; for pest or weed control at 62 g/ha: 62 g ai/ha; for pest or weed control at 125 g/ha: 125 g ai/ha
From the text: as §1, §2, §3

[3] = system: morningglory (Ipomoea coccinea); assay: Test B pre-/postemergence plant response; conditions: Ipomoea, read-out: Plant response rating, Morningglory; for pest or weed control at 16 g/ha: 16 g ai/ha; for pest or weed control at 31 g/ha: 31 g ai/ha, 100 complete control; for pest or weed control at 62 g/ha: 62 g ai/ha; for pest or weed control at 125 g/ha: 125 g ai/ha
From the text: as §1, §2, §3

[4] = system: lambsquarters (Chenopodium album); assay: Test B pre-/postemergence plant response; conditions: Chenopodium album, read-out: Plant response rating, Lambsquarters; for pest or weed control at 16 g/ha: 16 g ai/ha; for pest or weed control at 31 g/ha: 31 g ai/ha, 100 complete control; for pest or weed control at 125 g/ha: 125 g ai/ha
From the text: as §1, §2, §3

[5] = system: giant foxtail (Setaria faberii); assay: Test B pre-/postemergence plant response; conditions: Setaria faberi, read-out: Plant response rating, Foxtail, Giant; for pest or weed control at 16 g/ha: 16 g ai/ha; for pest or weed control at 31 g/ha: 31 g ai/ha, 100 complete control; for pest or weed control at 62 g/ha: 62 g ai/ha; for pest or weed control at 125 g/ha: 125 g ai/ha
From the text: as §1, §2, §3

[6] = system: wheat (Triticum aestivum); assay: Test B pre-/postemergence plant response; conditions: Triticum aestivum, read-out: Plant response rating, Wheat; for plant injury at 16 g/ha: 16 g ai/ha; for plant injury at 31 g/ha: 31 g ai/ha, 100 complete control; for plant injury at 62 g/ha: 62 g ai/ha; for plant injury at 125 g/ha: 125 g ai/ha
From the text: as §1, §2, §3

[7] = system: pigweed (Amaranthus retroflexus); assay: Test B pre-/postemergence plant response; conditions: Amaranthus retroflexus, post-emergence, Postemergence, read-out: Plant response rating, Pigweed
From the text: as §1, §2, §3

[8] = system: common (oilseed) sunflower (Helianthus annuus); assay: Test B pre-/postemergence plant response; conditions: Helianthus annuus, pre-emergence, Preemergence, read-out: Plant response rating, Sunflower
From the text: as §1, §2, §3

[9] = system: Italian ryegrass (Lolium multiflorum); assay: Test B pre-/postemergence plant response; conditions: Lolium multiflorum, read-out: Plant response rating, Ryegrass, Italian; for pest or weed control at 16 g/ha: 16 g ai/ha; for pest or weed control at 31 g/ha: 31 g ai/ha, 100 complete control; for pest or weed control at 62 g/ha: 62 g ai/ha; for pest or weed control at 125 g/ha: 125 g ai/ha
From the text: as §1, §2, §3

soybean (Glycine max) = assay: Test B pre-/postemergence plant response; conditions: Glycine max, read-out: Plant response rating, Soybean; for plant injury at 16 g/ha: 16 g ai/ha; for plant injury at 31 g/ha: 31 g ai/ha, 100 complete control; for plant injury at 62 g/ha: 62 g ai/ha; for plant injury at 125 g/ha: 125 g ai/ha
From the text: as §1, §2, §3

[10] = system: bermudagrass (Cynodon dactylon); assay: Test B pre-/postemergence plant response; conditions: Cynodon dactylon, read-out: Plant response rating, Bermudagrass; for pest or weed control at 16 g/ha: 16 g ai/ha; for pest or weed control at 31 g/ha: 31 g ai/ha, 100 complete control; for pest or weed control at 62 g/ha: 62 g ai/ha; for pest or weed control at 125 g/ha: 125 g ai/ha
From the text: as §1, §2, §3

[11] = system: chickweed (Stellaria media); assay: Test B postemergence plant response; conditions: Postemergence
Summary of the method: (§4)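 Postemergence greenhouse test; plants at 2 to 18 cm (1- to 4-leaf stage) given formulated test chemical, held 13 to 15 days, then visually rated against untreated controls on a 0 (no effect) to 100 (complete control) scale; dash means no result.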

[12] = system: windgrass (Apera spica-venti); assay: Test B postemergence plant response; conditions: Postemergence
Summary of the method: as §4

[13] = system: canarygrass (Phalaris minor); assay: Test B postemergence plant response; conditions: Postemergence
Summary of the method: as §4

[14] = system: winter barley (Hordeum vulgare); assay: Test B postemergence plant response; conditions: Postemergence
Summary of the method: as §4

[15] = post-emergence, Postemergence, scale 0 to 100
[16] = post-emergence, Postemergence, scale 0 to 100, 0 no effect
[17] = pre-emergence, Preemergence, scale 0 to 100 (0 no effect, 100 complete control)
[18] = pre-emergence, Preemergence, 0 to 100 scale, 0 no effect
[19] = pre-emergence, Preemergence, scale 0 to 100
[20] = 31 g ai/ha, scale 0 to 100, 0 no effect, 100 complete control

## CCc1cc(-c2ccc(C(F)(F)F)cc2)nn1-c1c(O)cnn(C)c1=O [Compound 11, 4-[5-ethyl-3-[4-(trifluoromethyl)phenyl]-1H-pyrazol-1-yl]-5-hydroxy-2-methyl-3(2H)-pyridazinone]
[1]; [15]
  pest or weed control at 16 g/ha: 100%
  pest or weed control at 62 g/ha: 100%
  pest or weed control at 125 g/ha: 100%
[1]; [16]
  pest or weed control at 31 g/ha: 100%
[1]; [17]
  pest or weed control at 16 g/ha: 100%
[1]; [18]
  pest or weed control at 31 g/ha: 100%
[1]; [19]
  pest or weed control at 62 g/ha: 100%
  pest or weed control at 125 g/ha: 100%
[2]; [15]
  pest or weed control at 16 g/ha: 85%
  pest or weed control at 62 g/ha: 98%
  pest or weed control at 125 g/ha: 100%
[2]; [16]
  pest or weed control at 31 g/ha: 90%
[2]; [17]
  pest or weed control at 16 g/ha: 50%
[2]; [18]
  pest or weed control at 31 g/ha: 95%
[2]; [19]
  pest or weed control at 62 g/ha: 98%
  pest or weed control at 125 g/ha: 100%
[3]; [15]
  pest or weed control at 16 g/ha: 0%
  pest or weed control at 62 g/ha: 0%
  pest or weed control at 125 g/ha: 0%
[3]; [16]
  pest or weed control at 31 g/ha: 0%
[3]; [17]
  pest or weed control at 16 g/ha: 0%
[3]; [18]
  pest or weed control at 31 g/ha: 0%
[3]; [19]
  pest or weed control at 62 g/ha: 0%
  pest or weed control at 125 g/ha: 0%
[4]; [15]
  pest or weed control at 16 g/ha: 0%
  pest or weed control at 125 g/ha: 0%
[4]; [16]
  pest or weed control at 31 g/ha: 0%
[4]; post-emergence, Postemergence, 62 g ai/ha, scale 0 to 100
  pest or weed control at 62 g/ha: 0%
[4]; [17]
  pest or weed control at 16 g/ha: 0%
[4]; [18]
  pest or weed control at 31 g/ha: 0%
[4]; [19]
  pest or weed control at 125 g/ha: 0%
[5]; [15]
  pest or weed control at 16 g/ha: 100%
  pest or weed control at 62 g/ha: 100%
  pest or weed control at 125 g/ha: 100%
[5]; [16]
  pest or weed control at 31 g/ha: 100%
[5]; [17]
  pest or weed control at 16 g/ha: 90%
[5]; [18]
  pest or weed control at 31 g/ha: 90%
[5]; [19]
  pest or weed control at 62 g/ha: 100%
  pest or weed control at 125 g/ha: 100%
[6]; [15]
  plant injury at 16 g/ha: 90%
  plant injury at 62 g/ha: 100%
  plant injury at 125 g/ha: 100%
[6]; [16]
  plant injury at 31 g/ha: 100%
[6]; [17]
  plant injury at 16 g/ha: 90%
[6]; [18]
  plant injury at 31 g/ha: 95%
[6]; [19]
  plant injury at 62 g/ha: 95%
  plant injury at 125 g/ha: 100%
[7]; 16 g ai/ha, scale 0 to 100
  pest or weed control at 16 g/ha: 0%
[7]; [20]
  pest or weed control at 31 g/ha: 0%
[7]; 62 g ai/ha, scale 0 to 100
  pest or weed control at 62 g/ha: 0%
[7]; 125 g ai/ha, scale 0 to 100
  pest or weed control at 125 g/ha: 5%
[8]; 16 g ai/ha, scale 0 to 100 (0 no effect, 100 complete control)
  pest or weed control at 16 g/ha: 0%
[8]; 31 g ai/ha, 0 to 100 scale, 0 no effect, 100 complete control
  pest or weed control at 31 g/ha: 0%
[8]; 62 g ai/ha, scale 0 to 100
  pest or weed control at 62 g/ha: 0%
[8]; 125 g ai/ha, scale 0 to 100
  pest or weed control at 125 g/ha: 0%
[9]; [15]
  pest or weed control at 16 g/ha: 100%
  pest or weed control at 62 g/ha: 100%
  pest or weed control at 125 g/ha: 100%
[9]; [16]
  pest or weed control at 31 g/ha: 100%
[9]; [17]
  pest or weed control at 16 g/ha: 90%
[9]; [18]
  pest or weed control at 31 g/ha: 100%
[9]; [19]
  pest or weed control at 62 g/ha: 100%
  pest or weed control at 125 g/ha: 100%
Soybean (Glycine max); [15]
  plant injury at 16 g/ha: 0%
  plant injury at 62 g/ha: 0%
  plant injury at 125 g/ha: 0%
Soybean (Glycine max); [16]
  plant injury at 31 g/ha: 0%
Soybean (Glycine max); [17]
  plant injury at 16 g/ha: 0%
Soybean (Glycine max); [18]
  plant injury at 31 g/ha: 0%
Soybean (Glycine max); [19]
  plant injury at 62 g/ha: 0%
  plant injury at 125 g/ha: 0%
[10]; [15]
  pest or weed control at 16 g/ha: 100%
  pest or weed control at 62 g/ha: 100%
  pest or weed control at 125 g/ha: 100%
[10]; [16]
  pest or weed control at 31 g/ha: 100%
[10]; [17]
  pest or weed control at 16 g/ha: 100%
[10]; [18]
  pest or weed control at 31 g/ha: 100%
[10]; [19]
  pest or weed control at 62 g/ha: 100%
  pest or weed control at 125 g/ha: 100%
[11]; 16 g ai/ha, scale 0 to 100
  Plant response rating, Chickweed: 0
[11]; [20]
  Plant response rating, Chickweed: 0
[11]; 62 g ai/ha, scale 0 to 100
  Plant response rating, Chickweed: 0
[11]; 125 g ai/ha, scale 0 to 100
  Plant response rating, Chickweed: 0
[12]; 16 g ai/ha, scale 0 to 100
  Plant response rating, Windgrass: 100
[12]; [20]
  Plant response rating, Windgrass: 100
[12]; 62 g ai/ha, scale 0 to 100
  Plant response rating, Windgrass: 100
[12]; 125 g ai/ha, scale 0 to 100
  Plant response rating, Windgrass: 100
[13]; 16 g ai/ha, scale 0 to 100
  Plant response rating, Canarygrass: 80
[13]; [20]
  Plant response rating, Canarygrass: 100
[13]; 62 g ai/ha, scale 0 to 100
  Plant response rating, Canarygrass: 100
[13]; 125 g ai/ha, scale 0 to 100
  Plant response rating, Canarygrass: 100
[14]; 16 g ai/ha, scale 0 to 100, 0 no effect, 100 complete control
  Plant response rating, Barley: 90
[14]; [20]
  Plant response rating, Barley: 95
[14]; 62 g ai/ha, scale 0 to 100
  Plant response rating, Barley: 100
[14]; 125 g ai/ha, scale 0 to 100
  Plant response rating, Barley: 100
